The source made the active and inactive calls.
Assays:
CFBE41o- [1] = assay: Upregulation of ATF6 protein expression in human CFBE41o- cells expressing CFTR P.Phe508del mutant by Western blot analysis; type: functional, cell-based
CFBE41o- [2] = assay: Induction of UPR in human CFBE41o- cells expressing CFTR P.Phe508del mutant assessed as upregulation of PERK mRNA expression by RT-PCR analysis; type: functional, cell-based
BHK = assay: Restoration of CFTR chloride channel activity in […] BHK cells expressing 3HA-epitope tagged CFTR P.Phe508del mutant assessed as increase in exportation of mutant CFTR to membrane by measuring mature CFTR by immunoblot analysis; type: functional, cell-based
[3] = Cytotoxicity against human CFBE41o- cells expressing CFTR P.Phe508del mutant at 10 uM incubated for 48 hrs by MTT assay; type: toxicity, cell-based
CFBE41o- [4] = assay: Induction of UPR in human CFBE41o- cells expressing CFTR P.Phe508del mutant assessed as upregulation of XBP1 mRNA expression by RT-PCR analysis; type: functional, cell-based
CFBE41o- [5] = assay: Induction of UPR in human CFBE41o- cells expressing CFTR P.Phe508del mutant assessed as upregulation of IRE1 mRNA expression by RT-PCR analysis; type: functional, cell-based
CFBE41o- [6] = assay: Restoration of CFTR chloride channel activity in human CFBE41o- cells expressing CFTR P.Phe508del mutant assessed as increase in transcription of CFTR P.Phe508del mutant mRNA expression by RT-qPCR analysis; type: functional, cell-based
CFBE41o- [7] = assay: Upregulation of cleaved form of ATF6 protein expression in human CFBE41o- cells expressing CFTR P.Phe508del mutant by Western blot analysis; type: functional, cell-based
[8] = Restoration of CFTR chloride channel activity in human CFBE41o- cells expressing CFTR P.Phe508del mutant assessed as increase in channel function by measuring Cl- current at 10 uM at -80 mV holding potential incubated for 48 hrs by whole cell patch clamp assay (reference value: 32.98 +/- 14.71 pA/pF); type: functional
CFBE41o- [9] = assay: Upregulation of BiP protein expression in human CFBE41o- cells expressing CFTR P.Phe508del mutant by Western blot analysis; type: functional, cell-based

Measured: Activity

CCN(CC)Cc1ccc(C(=O)N(CCc2ccccc2OC)[C@@H]2CCNC2)cc1
82.67 pA/pF: [8]
Non-Toxic: [3]
active: all other assays above
